Data published in publication PMC11642940, “A New Demand for Improved Selectivity and Potency of Cyanine Dyes as Antiproliferative Agents Against Colorectal Cancer Cells” (Molecules, 2024).

Experiments:
[1] = Photostability assay (absorbance decay under white light); type: physicochemical; conditions: 10 µM in PBS, after 30 min white light irradiation; 436 nm for 5, 439 nm for 10
Method: To further explore this, the photostability of these dyes was tested. […] A gradual linear degradation continued for at least 120 min. This degradation likely explains the decreased cytotoxicity observed in the photocytotoxicity assay.
In a 96-well plate, 100 µL of dyes 5 and 10 at a concentration of 10 µM, prepared from 10 mM DMSO stock solution diluted in PBS, was added at each well. The photostability assay was performed by irradiating the as previously described for photocytotoxicity evaluation, repeated several times up to 120 min. Spectrophotometric readings were taken over the maximum absorption wavelength of each dye (436 nm for 5 and 439 nm for 10). Two independent experiments were performed in quadruplicate, and the obtained absorbance values were normalized.

[2] = test system: Caco-2 cells; experiment: Caco-2 morphological analysis (optical microscopy); conditions: 72 h
Method: Sorbitol and 5-FU were used as positive controls, while untreated cells served as the negative control.
Caco-2 cells near confluency were trypsinized, counted, and then seeded at 3 × 10^4 cells/mL (3 mL) in 35 mm cell culture dishes previously treated for tissue culture. After cell adherence (48 h), they were incubated with solutions under study for 72 h in the absence of light. The cellular morphology was verified every 24 h using a CKX41 SF inverted microscope (Olympus, Tokyo, Japan) with 10, 20, or 40× objectives. A DC6 V digital camera (Olympus, Tokyo, Japan) coupled to the microscope was used to capture cell imaging. The morphology of cells in the presence or absence of treatments was compared.

[3] = test system: NHDF cell line; experiment: Phototoxicity assay (MTT after white light irradiation); type: cell-based; conditions: Homo sapiens, light or radiation study, 30 min white light irradiation (30 W RGB LED) after 48 h, 72 h in total
Method: While this work focused on monomethine cyanine dyes designed to be used at the outer edge of the “phototherapeutic window” (650–850 nm), photocytotoxicity and photostability studies were carried out for cyanines 5 and 10, as part of an effort to determine whether there would be synergistic action from light exposure on their cytotoxicity. A 30 W RGB LED light source, previously validated by our research group, was applied to the NHDF cell line using the MTT assay. […] These reductions in cytotoxicity align with previous studies on similar compounds and are likely due to some level of photodegradation.
A phototoxicity evaluation was performed on the NHDF cell line with a similar methodology to the MTT assay and following previously validated methods. After 48 h of incubation with increasing concentrations ranging from 0.001 to 100 μM, cells were subjected to 30 min of constant irradiation with the white light of a Luxtar (Yancheng, Jiangsu, China) RGBW LED projector (220–240 V and 30 W). After this irradiation, the cells were incubated at 37 °C for an additional 24 h (72 h in total). This assay was performed in quadruplicate, and two independent assays were realized.

[4] = molecular target: T1, topoisomerase II (Topo II) (Homo sapiens, UniProt P11388); experiment: Topoisomerase II inhibitory assay (pRYG DNA relaxation, agarose gel); type: biochemical; conditions: 50 µM, 5.0 units Topo II, 250.0 ng pRYG DNA, mean ± SD of two assays
T1 construct: purchased TopoGEN Inc. (Buena Vista, CO, USA) 1009-1
Method: To do so, the impact of cyanines on Topo II activity was assessed using a pRYG DNA substrate in the presence and absence of the dyes. This was monitored via a Topo II drug screening kit followed by agarose gel electrophoresis. […] All samples applied to the agarose gel contained 5.0 units of Topo II and 250.0 ng of pRYG DNA as the substrate. Linear pRYG DNA (Lane DNA marker) served as the reference control for the DNA band positions, and 50 µM VP-16 (Lane 3) was used as a positive control. […]
The formation of relaxed DNA products, indicating Topo II activity, is visible in Lane 1 (incubation of pRYG DNA with Topo II) of Figure 8A. […] The intensity of the relaxed DNA bands from two independent experiments was quantified for all samples and normalized to the Topo II activity in the absence of inhibitors (No drug sample, Lane 1) using Image Lab, Version 6.1 (Figure 8B). […]
Cyanine stock solutions in DMSO were further diluted with Tris-HCl (DMSO:Tris-HCl–1:9) to the concentrations desired for assays. […] Electrophoresis was run at 110 V for 40 min and analyzed under ultraviolet (UV) light using a FireReader Imaging System (UVITEC, Cambridge, UK). Band intensities were measured using the software Image Lab, Version 6.1 (BioRad Laboratories, Hercules, CA, USA). […]

[5] = test system: Caco-2 cells; experiment: Fluorescence microscopy (cell penetration, intracellular localization); type: cell-based, human; conditions: Caco-2, 1 µM, 20 h, Hoescht 33342 counterstain
Method: The cells were incubated with the dyes for 20 h, followed by fixation and staining with Hoescht 33342, a commonly used cell-permeant nucleic acid stain.
Fluorescence microscopy was used to confirm whether the compounds under study cross the cell membrane, and to understand where they are located within the cell (nucleus and/or cytoplasm). To this end, the procedure previously described in Lima et al. was followed. Hoescht 33342 was used as a specific marker. Cells were seeded in 24-well culture plates containing sterile circular coverslips of 15 mm diameter. After 48 h for cell adhesion, they were incubated with the compounds for 20 h. After this incubation period, the cells were washed three times with PBS and the fixation process was carried out. To do this, the contents of the wells were removed, and a 4% formalin solution was added until the wells were covered, followed by an incubation at room temperature for 15 min. Then, the washing process was repeated three times with PBS, and the cells were then incubated with a solution of Hoescht 33342 (1:500) for 10 min, in the dark and at room temperature. Subsequently, the wells were washed again with PBS and the slides were mounted with permanent mounting medium (Dako) and left to dry in a cool and dry place for 24 h. […]

T1 sequence (P11388 whole entry): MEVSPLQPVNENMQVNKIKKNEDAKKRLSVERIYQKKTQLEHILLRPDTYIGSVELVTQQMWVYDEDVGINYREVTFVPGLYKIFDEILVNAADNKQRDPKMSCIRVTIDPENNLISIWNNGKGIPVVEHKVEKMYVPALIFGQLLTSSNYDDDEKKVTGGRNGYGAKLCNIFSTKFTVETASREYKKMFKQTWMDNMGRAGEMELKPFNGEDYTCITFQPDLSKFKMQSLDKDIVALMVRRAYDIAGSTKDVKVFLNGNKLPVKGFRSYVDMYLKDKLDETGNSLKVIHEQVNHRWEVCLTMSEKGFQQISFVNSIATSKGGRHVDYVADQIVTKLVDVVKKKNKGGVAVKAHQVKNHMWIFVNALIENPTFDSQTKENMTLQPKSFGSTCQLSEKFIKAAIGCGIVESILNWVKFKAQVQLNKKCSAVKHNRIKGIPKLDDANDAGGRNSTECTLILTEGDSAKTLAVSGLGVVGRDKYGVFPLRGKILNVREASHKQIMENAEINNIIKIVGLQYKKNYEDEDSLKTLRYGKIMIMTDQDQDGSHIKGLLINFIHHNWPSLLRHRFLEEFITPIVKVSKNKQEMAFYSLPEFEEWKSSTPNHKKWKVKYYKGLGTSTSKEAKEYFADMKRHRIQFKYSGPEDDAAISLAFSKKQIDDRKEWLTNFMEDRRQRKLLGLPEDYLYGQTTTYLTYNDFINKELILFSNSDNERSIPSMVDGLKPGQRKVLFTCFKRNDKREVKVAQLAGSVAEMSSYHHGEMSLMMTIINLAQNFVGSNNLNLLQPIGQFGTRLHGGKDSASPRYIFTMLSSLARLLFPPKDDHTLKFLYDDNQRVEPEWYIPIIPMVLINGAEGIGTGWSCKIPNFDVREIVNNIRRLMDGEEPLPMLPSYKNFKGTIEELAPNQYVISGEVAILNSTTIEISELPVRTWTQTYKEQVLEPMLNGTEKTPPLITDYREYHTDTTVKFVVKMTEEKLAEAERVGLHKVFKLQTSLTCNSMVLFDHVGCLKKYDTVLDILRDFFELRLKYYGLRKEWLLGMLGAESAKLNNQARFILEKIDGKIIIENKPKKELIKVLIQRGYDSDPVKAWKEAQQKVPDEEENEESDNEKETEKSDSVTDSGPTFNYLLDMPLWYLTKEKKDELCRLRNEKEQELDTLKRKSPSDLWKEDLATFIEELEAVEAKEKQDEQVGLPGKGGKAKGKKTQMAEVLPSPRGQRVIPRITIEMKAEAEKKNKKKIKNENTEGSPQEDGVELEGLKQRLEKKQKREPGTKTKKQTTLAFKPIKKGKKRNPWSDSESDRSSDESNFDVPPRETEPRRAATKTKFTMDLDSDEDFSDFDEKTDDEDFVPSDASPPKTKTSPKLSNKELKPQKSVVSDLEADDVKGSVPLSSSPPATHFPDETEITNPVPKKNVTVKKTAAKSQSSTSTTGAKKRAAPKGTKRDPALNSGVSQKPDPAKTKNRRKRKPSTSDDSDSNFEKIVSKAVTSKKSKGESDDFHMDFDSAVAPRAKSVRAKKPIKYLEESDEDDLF

| Compound | reduction in absorbance at maximum wavelength [1] [%] | morphological changes of Caco-2 cells ([2]; 10 µM) | IC50 [3] [µM] | relative intensity of relaxed DNA band (normalized to No drug sample) [4] | cell membrane crossing, intracellular localization and fluorescence [5] | morphological changes of Caco-2 cells ([2]; 1 µM) |
| --- | --- | --- | --- | --- | --- | --- |
| CCN1C(=Cc2sc3cc([N+](=O)[O-])ccc3[n+]2CC)Sc2ccccc21.Cc1ccc(S(=O)(=O)[O-])cc1 [Dye 10, 3-Ethyl-2-((3-ethylbenzo[d]thiazol-2(3H)-ylidene)methyl)-6-nitrobenzo[d]thiazol-3-ium 4-methylbenzenesulfonate] | 2.5 | noticeable reduction in the size of Caco-2 cells | 34.1 | 0.65 ± 0.024 | significantly lower fluorescence intensity compared to dye 5 | – |
| CN1C(=Cc2oc3ccccc3[n+]2C)C=Cc2ccccc21.Cc1ccc(S(=O)(=O)[O-])cc1 [Dye 5, 3-Methyl-2-((1-methylquinolin-2(1H)-ylidene)methyl)benzo[d]oxazol-3-ium 4-methylbenzenesulfonate] | 3.7 | – | 4.07 | 0.31 ± 0.063 | stain a specific organelle within the nucleoplasm but does not localize in the DNA | a few apoptotic bodies |
